Measurements from patent US11879137B2, “Treatment of type 1 diabetes and autoimmune diseases or disorders” (THE CHILDREN'S MEDICAL CENTER CORPORATION, priority 2017, dated 2024).

Test system: KL cells from bone marrow of NOD mice
Test: Flow cytometry of murine KL cells modulated with PGE2 or dmPGE2
Assay type: cell-based
Settings: for CXCR4 among chemokine receptors on treated KL cells: chemokine receptor profile; for expression of PD-L2, PD-1, CD80 and CD40: vs unmodulated KL cells
Source text: FIGS. 19A-19G show the profile of murine KL cells. (FIG. 19A-19B) Representative flow cytometric analysis and quantitative bar graph of PD-L1 expression on Lineage^−c-kit^+ (KL) cells from NOD mice pre- and post-pharmacologic modulation with PGE2. (FIG. 19C-19D) Representative flow cytometric analysis and quantitative bar graph of CXCR4 expression on KL cells from NOD mice pre- and post-pharmacologic modulation with PGE2. (FIG. 19E) Quantitative bar graph of flow cytometric expression of positive and negative costimulatory molecules (CD40, CD80, CD86, PD-L1, PD-L2 and PD-1) and of select pro-inflammatory and anti-inflammatory cytokines (IFN-γ, IL-10, IL-4) in PGE2-modulated KL cells from NOD mice as compared to those modulated with a selected PGE2 clinical grade agonist (dmPGE2) and compared to unmodulated KL cells isolated from the bone marrow of normoglycemic NOD mice. (FIG. 19F) Flow cytometric expression of selected chemokine receptors (CXCR4, CCR2, CCR4, CCR5, CCR6, CCR7, CCR8, and CXCR3) in PGE2-modulated KL cells from NOD mice as compared to those modulated with a selected PGE2 clinical grade agonist (dmPGE2) and to unmodulated KL cells isolated from the bone marrow of normoglycemic NOD mice. (FIG. 19G) Quantitative bar graph of flow cytometric expression of chemokines receptors (CCR2, CCR4, CCR5, CCR6, CCR7, CCR8, CXCR3 and CXCR4) in PGE2-modulated KL cells from NOD mice as compared to those modulated with a selected PGE2 clinical grade agonist (dmPGE2) and compared to unmodulated KL cells isolated from the bone marrow of normoglycemic NOD mice. […] Abbreviations: KL, Lineage^−c-kit^+ cells.
Murine regulatory KL cell modulation. Murine bone marrow KL (c-Kit+Lineage-) cells were isolated using magnetic beads and MACS® separation columns (Miltenyi Biotec, San Diego, CA) and ˜2×10^5 cells were plated in a U-bottomed 96-well plate with 200 μl of stem cell medium, Stemspan-SFEMII (STEMCELL Technologies, Cambridge, MA) and PGE2 (PromoKine, PromoCell Gmbh, Germany) was added at day 0 and day 1, at a concentration of 10 μM.
Flow cytometric analysis and intracellular cytokine staining. Flow cytometry was performed to analyze surface expression markers of PGE2-modulated HSPCs and dmPGE2 (16, 16-dimethyl PGE2)-modulated HSPCs. Anti-mouse PD-L1, PD-L2, PD-1, CD40, CD80, CD86, CD4, CD8, Ly-6G (Gr-1), B220, CD3, CXCR4, CCR2, CCR4, CCR5, CCR6, CCR7, CCR8, CXCR3, IL-4, IL-10 and IFN-γ were purchased from BD Biosciences, eBioscience (San Diego, CA) and BioLegend. The following antibodies corresponded to isotype controls for the murine antibodies above: PE mouse IgG1, κ isotype ctrl, Armenian hamster IgG; APC mouse IgG2b, κ isotype ctrl, Armenian hamster IgG. Cells were subjected to FACS analysis and were run on a FACSCalibur™ (Becton Dickinson). Data were analyzed using FlowJo software version 8.7.3 (Treestar).
Murine PGE2-modulated HSPCs abrogate the autoimmune response in vitro. The feasibility of pharmacological modulation of PD-L1 with PGE2 was next explored in murine HSPCs. […] Moreover, the chemokine receptor profile of PGE2-modulated KL cells as compared to dmPGE2-modulated KL cells and unmodulated KL cells was explored in order to assess which chemokines are potentially involved in the homing of PGE2-modulated and dmPGE2-modulated KL cells. […] The immunoregulatory properties of PGE2-modulated KL cells was next explored in an autoimmune setting in vitro. PGE2-modulated KL cells generated from normoglycemic NOD mice were co-cultured at ratios of 1:1, 1:5 and 1:10 (KL cells to T cells) with CD11c+ DCs and BDC2.5 transgenic CD4+CD25− T cells in the presence of BDC2.5 peptide. […] Indeed, PGE2-modulated KL cells exerted a robust immunoregulatory effect even if added at low ratios (1:5 PGE2-treated KL cell to T cells). A less pronounced effect was observed when unmodulated KL were added to the assays. […] PGE2-modulated HSPCs are thus endowed with immunoregulatory properties and are capable of abrogating the autoimmune response in vitro. […]

Structure (SMILES) | CXCR4 among chemokine receptors on treated KL cells | expression of PD-L2, PD-1, CD80 and CD40 | CXCR4 expression on KL cells (FACS) | PD-L1 expression on KL cells (FACS, 10 μM day 0 and day 1)
CCCCC(C)(C)[C@H](O)/C=C/[C@H]1[C@H](O)CC(=O)[C@@H]1C/C=C\CCCC(=O)O [16,16-dimethyl PGE2] | most expressed | similarly upregulated | – | –
CCCCC[C@H](O)/C=C/[C@H]1[C@H](O)CC(=O)[C@@H]1C/C=C\CCCC(=O)O [PGE2, prostaglandin E2] | most expressed | upregulation | markedly upregulated | upregulation
